US11535643B2, “Macrolides with modified desosamine sugars and uses thereof” (President and Fellows of Harvard College, priority 2015, dated 2022)
≈ marks a conversion by molar mass, not a printed value.

How the values were obtained:
Format in all cases: cell-based
[1] = tested on: A. baumannii; experiment: Broth dilution MIC determination (CLSI) against A. baumannii strains
Excerpt: (§1) Minimum inhibitory concentrations (MICs) for macrolides described herein have been determined for unique strains of S. aureus, S. pneumoniae, S. pyogenes, E. faecalis, E. coli, A. baumannii, K. pneumoniae, P. aeruginosa, and H. influenzae, including several multidrug-resistant strains, with a special focus on macrolide resistant mechanisms. Azithromycin and solithromycin were included as control compounds. CLSI standard procedures for broth dilution MIC determination were used. Data for exemplary compounds described herein is shown in Tables M1-M7 and in Tables N1-N4.

[2] = tested on: E. coli; experiment: Broth dilution MIC determination (CLSI) against E. coli strains
Excerpt: as §1

[3] = tested on: S. aureus; experiment: Broth dilution MIC determination (CLSI) against S. aureus strains
Excerpt: as §1

[4] = tested on: E. faecalis; experiment: Broth dilution MIC determination (CLSI) against E. faecalis strains
Excerpt: as §1

[5] = tested on: S. pyogenes; experiment: Broth dilution MIC determination (CLSI) against S. pyogenes strains
Excerpt: as §1

[6] = tested on: P. aeruginosa; experiment: Broth dilution MIC determination (CLSI) against P. aeruginosa strains
Excerpt: as §1

[7] = tested on: S. pneumoniae; experiment: Broth dilution MIC determination (CLSI) against S. pneumoniae strains
Excerpt: as §1

[8] = tested on: K. pneumoniae; experiment: Broth dilution MIC determination (CLSI) against K. pneumoniae strains
Excerpt: as §1, with “used.” for “used. Data for exemplary compounds described herein is shown in Tables M1-M7 and in Tables N1-N4.”

[9] = A. baumannii ATCC19606, strain MP-15 (Table N2)
[10] = A. baumannii clinical, strain MP576 (Table N2)
[11] = A. baumannii clinical, strain MP577 (Table N2)
[12] = E. coli ATCC25922, strain MP-4 (Table N2)
[13] = E. coli ATCC25922:tolC, strain MP-9 (Table N2)
[14] = E. coli clinical, strain MP541 (Table N2)
[15] = E. coli clinical-cErm, strain MP532 (Table N2)
[16] = S. aureus (MRSA) GISA USA600, strain MP-619 UNT-120 (Table N2)
[17] = S. aureus (MRSA) ST-228 cErm, strain MP-513 (Table N2)
[18] = S. aureus (MRSA) USA100, strain MP-618 UNT-096 (Table N2)
[19] = S. aureus (MRSA) USA300, strain MP-549 (Table N2)
[20] = S. aureus (MRSA) ermA phenotype, strain MP-620 UNT-146 (Table N2)
[21] = S. aureus ATCC29213, strain MP-12 (Table N2)
[22] = S. aureus ATCCBAA-977, strain MP-17 (Table N2)
[23] = E. faecalis ATCC29212, strain MP-24 (Table N2)
[24] = E. faecalis van resistant, strain UNT-039 (Table N2)
[25] = S. pyogenes ATCC19615, strain MP-19 (Table N2)
[26] = S. pyogenes mac resistant, strain MP-625 UNT-014 (Table N2)
[27] = P. aeruginosa ATCC27853, strain MP-3 (Table N2)
[28] = P. aeruginosa PAO1, strain MP-7 (Table N2)
[29] = P. aeruginosa PAO1:mex, strain MP-8 (Table N2)
[30] = S. pneumoniae ATCC49619, strain MP-21 (Table N2)
[31] = S. pneumoniae mefA, strain MP-626 UNT-038 (Table N2)
[32] = S. pneumoniae mefA, strain MP-627 UNT-039 (Table N2)
[33] = K pneumomae ATCC10031, strain MP-14 (Table N2)
[34] = K. pneumoniae clinical, strain MP546 (Table N2)
[35] = K. pneumoniae clinical, strain MP548 (Table N2)

For `CCC1OC(=O)C(C)C(=O)C(C)C(OC2OC(C)CC(N3CCOC3CO)C2O)C(C)(OC)CC(C)CNC(C)C2N(CCCCn3cc(-c4cccc(N)c4)nn3)C(=O)OC12C` (stereo not drawn) [FSM-120380], the MIC [1, 9] was >64 µg/mL, the MIC [1, 10] was >64 µg/mL and the MIC [1, 11] was >64 µg/mL. For the same molecule, the MIC [2, 12] was >64 µg/mL, the MIC [2, 13] was 32 µg/mL (≈ 36.1 µM) and the MIC [2, 14] was >64 µg/mL. The MIC [2, 15] was >64 µg/mL, the MIC [3, 16] was >64 µg/mL and the MIC [3, 17] was >64 µg/mL. The MIC [3, 18] was >64 µg/mL, the MIC [3, 19] was >64 µg/mL and the MIC [3, 20] was >64 µg/mL. The MIC [3, 21] was >64 µg/mL, the MIC [3, 22] was >64 µg/mL and the MIC [4, 23] was 64 µg/mL (≈ 72.2 µM). The MIC [4, 24] was >64 µg/mL, the MIC [5, 25] was 8 µg/mL (≈ 9.03 µM) and the MIC [5, 26] was 32 µg/mL (≈ 36.1 µM). The MIC [6, 27] was >64 µg/mL, the MIC [6, 28] was >64 µg/mL and the MIC [6, 29] was >64 µg/mL. The MIC [7, 30] was 8 µg/mL (≈ 9.03 µM), the MIC [7, 31] was 4 µg/mL (≈ 4.51 µM) and the MIC [7, 32] was 4 µg/mL (≈ 4.51 µM). The MIC [8, 33] was >64 µg/mL, the MIC [8, 34] was >64 µg/mL and the MIC [8, 35] was >64 µg/mL.
`C=CCOCC1CC(N(C)C)C(O)C(OC2C(C)C(=O)C(C)C(=O)OC(CC)C3(C)OC(=O)N(CCCCn4cc(-c5cccc(N)c5)nn4)C3C(C)NCC(C)CC2(C)OC)O1` (stereo not drawn) [FSM-120383] was tested, and the “MIC A. baumannii ATCC19606” value ([1]; ATCC19606, Strain No. MP-15) was 32 µg/mL (≈ 36.2 µM), the “MIC A. baumannii clinical” value ([1]; Strain No. MP576) was >64 µg/mL and the “MIC A. baumannii clinical” value ([1]; Strain No. MP577) was 64 µg/mL (≈ 72.4 µM). The “MIC E. coli ATCC25922” value ([2]; ATCC25922, Strain No. MP-4) was 32 µg/mL (≈ 36.2 µM), the “MIC E. coli ATCC25922:tolC” value ([2]; ATCC25922:tolC, Strain No. MP-9) was 4 µg/mL (≈ 4.52 µM) and the “MIC E. coli clinical” value ([2]; clinical, Strain No. MP541) was 32 µg/mL (≈ 36.2 µM). The “MIC E. coli clinical-cErm” value ([2]; clinical-cErm, Strain No. MP532) was >64 µg/mL, the “MIC S. aureus ATCC29213” value ([3]; ATCC29213, Strain No. MP-12) was >64 µg/mL and the “MIC S. aureus ATCCBAA-977” value ([3]; ATCCBAA-977, Strain No. MP-17) was 64 µg/mL (≈ 72.4 µM). For the same molecule, the “MIC S. aureus (MRSA) GISA USA600” value ([3]; GISA USA600, Strain No. MP-619 UNT-120) was >64 µg/mL, the “MIC S. aureus (MRSA) ST-228 cErm” value ([3]; ST-228 cErm, Strain No. MP-513) was >64 µg/mL and the “MIC S. aureus (MRSA) USA100” value ([3]; USA100, Strain No. MP-618 UNT-096) was >64 µg/mL. For the same molecule, the “MIC S. aureus (MRSA) USA300” value ([3]; USA300, Strain No. MP-549) was >64 µg/mL, the “MIC S. aureus (MRSA) ermA phenotype” value ([3]; ermA phenotype, Strain No. MP-620 UNT-146) was >64 µg/mL and the “MIC E. faecalis ATCC29212” value ([4]; ATCC29212, Strain No. MP-24) was 8 µg/mL (≈ 9.05 µM). For the same molecule, the “MIC E. faecalis van resistant” value ([4]; van resistant, Strain No. UNT-039) was >64 µg/mL, the “MIC S. pyogenes ATCC19615” value ([5]; ATCC19615, Strain No. MP-19) was 0.25 µg/mL (≈ 0.283 µM) and the “MIC S. pyogenes mac resistant” value ([5]; mac resistant, Strain No. MP-625 UNT-014) was 1 µg/mL (≈ 1.13 µM). The “MIC P. aeruginosa ATCC27853” value ([6]; ATCC27853, Strain No. MP-3) was 32 µg/mL (≈ 36.2 µM), the “MIC P. aeruginosa PAO1” value ([6]; PAO1, Strain No. MP-7) was 64 µg/mL (≈ 72.4 µM) and the “MIC P. aeruginosa PAO1:mex” value ([6]; PAO1:mex, Strain No. MP-8) was 8 µg/mL (≈ 9.05 µM). The “MIC S. pneumoniae ATCC49619” value ([7]; ATCC49619, Strain No. MP-21) was 0.5 µg/mL (≈ 0.566 µM), the “MIC S. pneumoniae mefA” value ([7]; Strain No. MP-626 UNT-038) was 0.5 µg/mL (≈ 0.566 µM) and the “MIC S. pneumoniae mefA” value ([7]; Strain No. MP-627 UNT-039) was 0.5 µg/mL (≈ 0.566 µM). The “MIC K. pneumoniae ATCC10031” value ([8]; ATCC10031, Strain No. MP-14) was 8 µg/mL (≈ 9.05 µM), the “MIC K. pneumoniae clinical” value ([8]; Strain No. MP546) was >64 µg/mL and the “MIC K. pneumoniae clinical” value ([8]; Strain No. MP548) was >64 µg/mL.
With `CCC1OC(=O)C(C)C(=O)C(C)C(OC2OC(C)CC(NCc3cccnc3)C2O)C(C)(OC)CC(C)CNC(C)C2N(CCCCn3cc(-c4cccc(N)c4)nn3)C(=O)OC12C` (stereo not drawn) [FSM-120384] the MIC [1, 9] was 64 µg/mL (≈ 71.8 µM), the MIC [1, 10] was >64 µg/mL and the MIC [1, 11] was >64 µg/mL. The MIC [2, 12] was >64 µg/mL, the MIC [2, 13] was 8 µg/mL (≈ 8.98 µM) and the MIC [2, 14] was >64 µg/mL. The MIC [2, 15] was >64 µg/mL, the MIC [3, 16] was >64 µg/mL and the MIC [3, 17] was >64 µg/mL. The MIC [3, 18] was >64 µg/mL, the MIC [3, 19] was >64 µg/mL and the MIC [3, 20] was >64 µg/mL. For the same molecule, the MIC [3, 21] was >64 µg/mL, the MIC [3, 22] was >64 µg/mL and the MIC [4, 23] was 32 µg/mL (≈ 35.9 µM). For the same molecule, the MIC [4, 24] was >64 µg/mL, the MIC [5, 25] was 1 µg/mL (≈ 1.12 µM) and the MIC [5, 26] was 4 µg/mL (≈ 4.49 µM). The MIC [6, 27] was >64 µg/mL, the MIC [6, 28] was >64 µg/mL and the MIC [6, 29] was >64 µg/mL. The MIC [7, 30] was 2 µg/mL (≈ 2.24 µM), the MIC [7, 31] was 0.5 µg/mL (≈ 0.561 µM) and the MIC [7, 32] was 1 µg/mL (≈ 1.12 µM). For the same molecule, the MIC [8, 33] was 16 µg/mL (≈ 18 µM), the MIC [8, 34] was >64 µg/mL and the MIC [8, 35] was >64 µg/mL.
